In patent US20140228287A1, “1-[(3-CYANO-PYRIDIN-2-YL)METHYL]-3-METHYL-7-(2-BUTYN-1-YL)-8-[3-(R)-AMINO-PIPERIDIN-1-YL]-AXANTHINE FOR THE TREATMENT OF A METABOLIC DISORDER OF A PREDOMINANTLY CARNIVOROUS NON-HUMAN ANIMAL” (BOEHRINGER INGELHEIM VETMEDICA GMBH, priority 2010, published 2014):
Where a name gives a salt, the structure may show the parent alone. Read-outs that look alike come from different tables or passages of the source.

Legend:
[1] = system: insulin-resistant fa/fa rats; test: Delayed OGTT in insulin-resistant fa/fa rats; type: in vivo, rat; conditions: 3 mg/kg 16 h before OGTT
Description: Male Zucker Fatty (fa/fa) rats (Ico-Zucker-fa/fa (Orl)) were obtained from Iffa (France). Animals were fed ad libitum with a standard pelleted diet (Diet No. 3438, Provimi Kliba, Switzerland) and had free access to water. Animals were housed in groups with a 12 h/12 h light/dark cycle (lights out between 6 p.m. and 6 a.m.). The rats were used for the experiments between 7 and 12 weeks of age.
fa/fa rats (n=6 per group) were treated like the mice in Example 3, delayed OGTT. 1-[(3-cyano-pyridin-2-yl)methyl]-3-methyl-7-(2-butyn-1-yl)-8-[3-(R)-amino-piperidin-1-yl]-xanthine was dosed at 3 mg/kg 16 hours before the OGTT.
GLP-1 was measured using a commercially available GLP-1 (active) ELISA Kit (Catalog# EGLP-35K, Linco Research Inc., St. Charles/Mo., USA). Insulin was measured using a commercially available Rat Insulin ELISA Kit (Catalog#90060, Crystal Chem. Inc., Downers Grove/IL, USA).

DPP IV [2] = molecular target: T1, DPP IV (Felis catus, UniProt Q9N2I7); test: DPP IV activity in obese/non-obese cats, 7 days once daily dosing; type: in vivo, cat; conditions: 9 mg daily, percent of 0 h
T1 construct: Blood samples for the determination of this compound and DPP IV activity were collected; from tissue; host or cells: plasma of domestic short hair / purpose-bred cats dosed orally
T1 sequence (Q9N2I7 38-765 limits assumed): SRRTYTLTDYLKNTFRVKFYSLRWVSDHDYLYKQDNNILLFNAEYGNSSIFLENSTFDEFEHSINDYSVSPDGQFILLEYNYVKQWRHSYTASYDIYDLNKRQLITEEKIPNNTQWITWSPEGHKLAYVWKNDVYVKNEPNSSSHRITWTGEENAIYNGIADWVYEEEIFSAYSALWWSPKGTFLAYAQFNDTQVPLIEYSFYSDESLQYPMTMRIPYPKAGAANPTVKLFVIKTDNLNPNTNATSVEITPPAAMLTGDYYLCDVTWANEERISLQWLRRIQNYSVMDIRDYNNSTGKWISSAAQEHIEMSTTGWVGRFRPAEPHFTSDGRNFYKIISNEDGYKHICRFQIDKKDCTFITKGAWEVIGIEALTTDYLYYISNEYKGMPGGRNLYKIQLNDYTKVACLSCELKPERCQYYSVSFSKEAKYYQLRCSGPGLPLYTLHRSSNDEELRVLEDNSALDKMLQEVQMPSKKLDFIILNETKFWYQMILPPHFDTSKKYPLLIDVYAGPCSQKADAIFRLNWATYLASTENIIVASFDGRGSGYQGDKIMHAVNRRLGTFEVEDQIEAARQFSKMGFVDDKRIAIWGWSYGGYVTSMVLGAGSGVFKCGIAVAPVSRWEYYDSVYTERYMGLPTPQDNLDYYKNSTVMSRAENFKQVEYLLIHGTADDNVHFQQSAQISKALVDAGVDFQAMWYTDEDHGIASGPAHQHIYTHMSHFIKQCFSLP
Description: The aim of this exploratory, randomized, placebo controlled crossover study was to investigate the effect of 1-[(3-cyano-pyridin-2-yl)methyl]-3-methyl-7-(2-butyn-1-yl)-8-[3-(R)-amino-piperidin-1-yl]-xanthine monohydrochloride on DPP IV activity and on glucose concentrations in obese and non-obese cats after repeated oral administration over seven days.
Fourteen clinically healthy male and female (8 obese and 6 non-obese) purpose-bred cats were used in this study. The animals were randomly allocated to two groups of cats, obese and non-obese, and treated in a cross-over design with 9 mg 1-[(3-cyano-pyridin-2-yl)methyl]-3-methyl-7-(2-butyn-1-yl)-8-[3-(R)-amino-piperidin-1-yl]-xanthine monohydrochloride or placebo, once daily for 7 days, with a following wash-out period of 21 days.
Cats were fed once daily 40 min after administration of the compound or the placebo, respectively.
In parallel, DPP IV activity was assessed as above.

DPP IV [3] = molecular target: DPP IV (Homo sapiens, UniProt P27487); test: In vitro DPP IV inhibition; type: biochemical; conditions: for IC50: in vitro
DPP IV (Homo sapiens, UniProt P27487), sequence (P27487 whole entry, species assumed): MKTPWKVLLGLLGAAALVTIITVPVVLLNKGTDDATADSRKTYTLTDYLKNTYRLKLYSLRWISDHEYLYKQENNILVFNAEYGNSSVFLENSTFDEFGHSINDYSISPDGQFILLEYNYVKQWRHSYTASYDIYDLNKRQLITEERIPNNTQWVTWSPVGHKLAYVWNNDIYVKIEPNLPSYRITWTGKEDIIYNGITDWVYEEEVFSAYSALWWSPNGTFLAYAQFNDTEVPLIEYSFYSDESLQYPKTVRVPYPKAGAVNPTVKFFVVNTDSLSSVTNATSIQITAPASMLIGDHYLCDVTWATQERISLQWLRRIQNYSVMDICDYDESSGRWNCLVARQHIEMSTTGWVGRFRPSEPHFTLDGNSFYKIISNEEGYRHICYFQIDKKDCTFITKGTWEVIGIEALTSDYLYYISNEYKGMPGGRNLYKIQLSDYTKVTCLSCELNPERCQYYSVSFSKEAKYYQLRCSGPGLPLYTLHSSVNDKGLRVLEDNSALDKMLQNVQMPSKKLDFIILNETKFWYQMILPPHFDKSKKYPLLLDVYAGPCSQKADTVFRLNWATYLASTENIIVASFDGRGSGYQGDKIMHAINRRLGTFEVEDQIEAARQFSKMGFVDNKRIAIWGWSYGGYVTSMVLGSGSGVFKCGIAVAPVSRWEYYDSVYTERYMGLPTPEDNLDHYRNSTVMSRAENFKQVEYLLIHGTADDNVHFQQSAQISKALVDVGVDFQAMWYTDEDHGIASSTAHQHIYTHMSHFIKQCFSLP
Description: Studies were also conducted to assess the inhibitory effect of this compound on plasma DPP IV activity in several species.

CC#CCn1c(N2CCC[C@@H](N)C2)nc2c1c(=O)n(Cc1ncccc1C#N)c(=O)n2C [1-[(3-cyano-pyridin-2-yl)methyl]-3-methyl-7-(2-butyn-1-yl)-8-[3-(R)-amino-piperidin-1-yl]-xanthine monohydrochloride]
GLP-1 levels vs. control group [1]: elevated vs. the control group at all time points
Glucose AUC 0-90 min, Change versus control, Mean Diff. % [1]: −34.4%
Glucose AUC 0-90 min, Mean [1]: 177.00 mM·min
Glucose AUC 0-90 min, Median [1]: 165.00 mM·min
peak plasma insulin levels compared to vehicle treatment [1]: further elevations in peak plasma insulin levels
reduction of area under the glucose excursion curve [1]: 34.4%
rise of GLP-1 levels vs. baseline after the glucose stimulus [1]: 93%
Glucose, Change versus baseline, Mean Diff. % ([1]; 30 min): 71.7%
Glucose, Change versus control, Mean Diff. % ([1]; 30 min): −29.0%
Glucose, Mean ([1]; 30 min): 7.90 mM
Glucose, Median ([1]; 30 min): 8.00 mM
Glucose, Change versus baseline, Mean Diff. % ([1]; 60 min): 39.1%
Glucose, Change versus control, Mean Diff. % ([1]; 60 min): −23.0%
Glucose, Mean ([1]; 60 min): 6.40 mM
Glucose, Median ([1]; 60 min): 6.30 mM
Glucose, Change versus baseline, Mean Diff. % ([1]; 90 min): 34.8%
Glucose, Change versus control, Mean Diff. % ([1]; 90 min): −2.1%
Glucose, Mean ([1]; 90 min): 6.20 mM
Glucose, Median ([1]; 90 min): 6.30 mM
Glucose, Change versus baseline, Mean Diff. % ([1]; 120 min): 31.3%
Glucose, Change versus control, Mean Diff. % ([1]; 120 min): 5.7%
Glucose, Mean ([1]; 120 min): 6.04 mM
Glucose, Median ([1]; 120 min): 5.70 mM
Glucose, Change versus baseline, Mean Diff. % ([1]; 180 min): 29.6%
Glucose, Change versus control, Mean Diff. % ([1]; 180 min): 13.2%
Glucose, Mean ([1]; 180 min): 5.96 mM
Glucose, Median ([1]; 180 min): 6.10 mM
Glucose, Change versus control, Mean Diff. % ([1]; Pre-load): −15.6%
Glucose, Mean ([1]; Pre-load): 4.60 mM
Glucose, Median ([1]; Pre-load): 4.40 mM
activity at 9 mg (DPP IV [2]; Non-obese cats (n = 6), 1 h, read-out: DPP-IV activity %, Max): 25.4%
activity at 9 mg (DPP IV [2]; Non-obese cats (n = 6), 1 h, read-out: DPP-IV activity %, Mean ± STD): 13.8 ± 5.8%
activity at 9 mg (DPP IV [2]; Non-obese cats (n = 6), 1 h, read-out: DPP-IV activity %, Median): 11.3%
activity at 9 mg (DPP IV [2]; Non-obese cats (n = 6), 1 h, read-out: DPP-IV activity %, Min): 8.4%
activity at 9 mg (DPP IV [2]; Non-obese cats (n = 6), 6 h, read-out: DPP-IV activity %, Max): 25%
activity at 9 mg (DPP IV [2]; Non-obese cats (n = 6), 6 h, read-out: DPP-IV activity %, Mean ± STD): 14.4 ± 5.7%
activity at 9 mg (DPP IV [2]; Non-obese cats (n = 6), 6 h, read-out: DPP-IV activity %, Median): 11.4%
activity at 9 mg (DPP IV [2]; Non-obese cats (n = 6), 6 h, read-out: DPP-IV activity %, Min): 9.5%
activity at 9 mg (DPP IV [2]; Non-obese cats (n = 6), 24 h, read-out: DPP-IV activity %, Max): 45.1%
activity at 9 mg (DPP IV [2]; Non-obese cats (n = 6), 24 h, read-out: DPP-IV activity %, Mean ± STD): 20.1 ± 12%
activity at 9 mg (DPP IV [2]; Non-obese cats (n = 6), 24 h, read-out: DPP-IV activity %, Median): 15.3%
activity at 9 mg (DPP IV [2]; Non-obese cats (n = 6), 24 h, read-out: DPP-IV activity %, Min): 8.6%
activity at 9 mg (DPP IV [2]; Non-obese cats (n = 6), 72 h, read-out: DPP-IV activity %, Max): 27.9%
activity at 9 mg (DPP IV [2]; Non-obese cats (n = 6), 72 h, read-out: DPP-IV activity %, Mean ± STD): 18.2 ± 6%
activity at 9 mg (DPP IV [2]; Non-obese cats (n = 6), 72 h, read-out: DPP-IV activity %, Median): 18.9%
activity at 9 mg (DPP IV [2]; Non-obese cats (n = 6), 72 h, read-out: DPP-IV activity %, Min): 8.5%
activity at 9 mg (DPP IV [2]; Non-obese cats (n = 6), 168 h, read-out: DPP-IV activity %, Max): 23.5%
activity at 9 mg (DPP IV [2]; Non-obese cats (n = 6), 168 h, read-out: DPP-IV activity %, Mean ± STD): 17.4 ± 4.7%
activity at 9 mg (DPP IV [2]; Non-obese cats (n = 6), 168 h, read-out: DPP-IV activity %, Median): 18.2%
activity at 9 mg (DPP IV [2]; Non-obese cats (n = 6), 168 h, read-out: DPP-IV activity %, Min): 10.6%
activity at 9 mg (DPP IV [2]; Obese cats (n = 8), 1 h, read-out: DPP-IV activity %, Max): 17.5%
activity at 9 mg (DPP IV [2]; Obese cats (n = 8), 1 h, read-out: DPP-IV activity %, Mean ± STD): 12.1 ± 4%
activity at 9 mg (DPP IV [2]; Obese cats (n = 8), 1 h, read-out: DPP-IV activity %, Median): 11.1%
activity at 9 mg (DPP IV [2]; Obese cats (n = 8), 1 h, read-out: DPP-IV activity %, Min): 7.5%
activity at 9 mg (DPP IV [2]; Obese cats (n = 8), 6 h, read-out: DPP-IV activity %, Max): 20%
activity at 9 mg (DPP IV [2]; Obese cats (n = 8), 6 h, read-out: DPP-IV activity %, Mean ± STD): 11.9 ± 3.9%
activity at 9 mg (DPP IV [2]; Obese cats (n = 8), 6 h, read-out: DPP-IV activity %, Median): 10.5%
activity at 9 mg (DPP IV [2]; Obese cats (n = 8), 6 h, read-out: DPP-IV activity %, Min): 7.4%
activity at 9 mg (DPP IV [2]; Obese cats (n = 8), 24 h, read-out: DPP-IV activity %, Max): 26.5%
activity at 9 mg (DPP IV [2]; Obese cats (n = 8), 24 h, read-out: DPP-IV activity %, Mean ± STD): 17 ± 5.2%
activity at 9 mg (DPP IV [2]; Obese cats (n = 8), 24 h, read-out: DPP-IV activity %, Median): 15.4%
activity at 9 mg (DPP IV [2]; Obese cats (n = 8), 24 h, read-out: DPP-IV activity %, Min): 11.4%
activity at 9 mg (DPP IV [2]; Obese cats (n = 8), 72 h, read-out: DPP-IV activity %, Max): 23.9%
activity at 9 mg (DPP IV [2]; Obese cats (n = 8), 72 h, read-out: DPP-IV activity %, Mean ± STD): 18.4 ± 4.4%
activity at 9 mg (DPP IV [2]; Obese cats (n = 8), 72 h, read-out: DPP-IV activity %, Median): 18.5%
activity at 9 mg (DPP IV [2]; Obese cats (n = 8), 72 h, read-out: DPP-IV activity %, Min): 12.2%
activity at 9 mg (DPP IV [2]; Obese cats (n = 8), 168 h, read-out: DPP-IV activity %, Max): 39.8%
activity at 9 mg (DPP IV [2]; Obese cats (n = 8), 168 h, read-out: DPP-IV activity %, Mean ± STD): 19.9 ± 9%
activity at 9 mg (DPP IV [2]; Obese cats (n = 8), 168 h, read-out: DPP-IV activity %, Median): 19.2%
activity at 9 mg (DPP IV [2]; Obese cats (n = 8), 168 h, read-out: DPP-IV activity %, Min): 8.6%
IC50 (DPP IV [3]; GLP-1 as substrate): ~0.18 nM
IC50 (DPP IV [3]; dipeptide artificial substrate): ~1 nM
mode of DPP IV inhibition (DPP IV [3]; mechanistic studies): competitive and reversible inhibitor
